# Results: publication PMC5362750, “Discovery of Potent, Selective, and Orally Bioavailable Small-Molecule Modulators of the Mediator Complex-Associated Kinases CDK8 and CDK19” (Journal of Medicinal Chemistry, 2016)
# Tests used:
# [1] = biological target: CDK7/CYCLINH/MAT1 (Homo sapiens, UniProt P50613); conditions: 1 µM, ATP at Km
# [2] = biological target: T1, MET (Homo sapiens, UniProt P08581); test: Kinase panel (Millipore); format: biochemical; conditions: 1 µM, ATP at Km
# T1 construct: purchased Millipore (KinaseProfiler) kinase panel
# [3] = tested on: sigma (non-selective) (h); conditions: 10 µM, agonist radioligand
# [4] = female, NMRI, mouse, in vivo
# [5] = tested on: CK1(Y); test: Kinase panel (Millipore); format: biochemical; conditions: 1 µM, ATP at Km
# [6] = biological target: LIMK1 (Homo sapiens, UniProt P53667); test: Kinase panel (Millipore); format: biochemical; conditions: 1 µM, ATP at Km
# [7] = biological target: ROCK-I (Homo sapiens, UniProt Q13464); test: Kinase panel (Millipore); format: biochemical; conditions: 1 µM, ATP at Km
# [8] = biological target: T2, H4 (h) (Homo sapiens, UniProt Q9H3N8); test: CEREP binding assay; conditions: agonist radioligand, read-out: % Inhibition of Control Specific Binding
# T2 construct: purchased Millipore (KinaseProfiler) kinase panel
# [9] = biological target: EGFR(T790M) (Homo sapiens, UniProt P00533, T790M); conditions: 1 µM, ATP at Km
# [10] = biological target: T3, IRR (Homo sapiens, UniProt P14616); test: Kinase panel (Millipore); format: biochemical; conditions: 1 µM, ATP at Km
# T3 construct: purchased Millipore (KinaseProfiler) kinase panel
# [11] = biological target: T4, MAPKAP-K2 (Homo sapiens, UniProt P49137); test: Kinase panel (Millipore); format: biochemical; conditions: 1 µM, ATP at Km
# T4 construct: purchased Millipore (KinaseProfiler) kinase panel
# [12] = biological target: glucagon (h) (Homo sapiens, UniProt P47871); test: biochemical; conditions: read-out: % Inhibition of Control Specific Binding
# [13] = biological target: STK33 (Homo sapiens, UniProt Q9BYT3); conditions: 1 µM, ATP at Km
# [14] = biological target: ASK1 (Homo sapiens, UniProt Q99683); test: Kinase panel (Millipore); format: biochemical; conditions: 1 µM, ATP at Km
# [15] = biological target: ABL (Homo sapiens, UniProt P00519); test: Kinase panel (Millipore); format: biochemical; conditions: 1 µM, ATP at Km
# [16] = biological target: YES (Homo sapiens, UniProt P07947); test: Kinase panel (Millipore); format: biochemical; conditions: 1 µM, ATP at Km
# [17] = biological target: T5, MRCKBETA (Homo sapiens, UniProt Q9Y5S2); test: Kinase panel (Millipore); format: biochemical; conditions: 1 µM, ATP at Km
# T5 construct: purchased Millipore (KinaseProfiler) kinase panel
# [18] = tested on: TNF-alpha (h); conditions: 10 µM, agonist radioligand
# [19] = biological target: T6, EPHB4 (Homo sapiens, UniProt P54760); test: Kinase panel (Millipore); format: biochemical; conditions: 1 µM, ATP at Km
# T6 construct: purchased Millipore (KinaseProfiler) kinase panel
# [20] = biological target: SAPK4 (Homo sapiens, UniProt O15264); test: Kinase panel (Millipore); format: biochemical; conditions: 1 µM, ATP at Km
# [21] = biological target: CAMKIV (Homo sapiens, UniProt Q16566); test: Kinase panel (Millipore); format: biochemical; conditions: 1 µM, ATP at Km
# [22] = biological target: T7, EPHA4 (Homo sapiens, UniProt P54764); test: Kinase panel (Millipore); format: biochemical; conditions: 1 µM, ATP at Km
# T7 construct: purchased Millipore (KinaseProfiler) kinase panel
# [23] = biological target: PKCBETAI (Homo sapiens, UniProt P05771); test: Kinase panel (Millipore); format: biochemical; conditions: 1 µM, ATP at Km
# [24] = in vivo; conditions: male, rat, 0.2 mg/kg
# [25] = biological target: PIM-3 (Homo sapiens, UniProt Q86V86); test: Kinase panel (Millipore); format: biochemical; conditions: 1 µM, ATP at Km
# [26] = biological target: T8, SGK3 (Homo sapiens, UniProt Q96BR1); test: Kinase panel (Millipore); format: biochemical; conditions: 1 µM, ATP at Km
# T8 construct: purchased Millipore (KinaseProfiler) kinase panel
# [27] = biological target: T9, PKCETA (Homo sapiens, UniProt P24723); test: Kinase panel (Millipore); format: biochemical; conditions: 1 µM, ATP at Km
# T9 construct: purchased Millipore (KinaseProfiler) kinase panel
# [28] = biological target: T10, ARK5 (Homo sapiens, UniProt O60285); test: Kinase panel (Millipore); format: biochemical; conditions: 1 µM, ATP at Km
# T10 construct: purchased Millipore (KinaseProfiler) kinase panel
# [29] = biological target: IRAK4 (Homo sapiens, UniProt Q9NWZ3); test: Kinase panel (Millipore); format: biochemical; conditions: 1 µM, ATP at Km
# [30] = biological target: T11, GCK (Homo sapiens, UniProt Q12851); test: Kinase panel (Millipore); format: biochemical; conditions: 1 µM, ATP at Km
# T11 construct: purchased Millipore (KinaseProfiler) kinase panel
# [31] = biological target: T12, RET (Homo sapiens, UniProt P07949); test: Kinase panel (Millipore); format: biochemical; conditions: 1 µM, ATP at Km
# T12 construct: purchased Millipore (KinaseProfiler) kinase panel
# [32] = biological target: N muscle-type (h) (Homo sapiens, UniProt P02708+P07510+Q07001); test: biochemical; conditions: read-out: % Inhibition of Control Specific Binding
# [33] = biological target: SRC (Homo sapiens, UniProt P12931); test: Kinase panel (Millipore); format: biochemical; conditions: 1 µM, ATP at Km
# [34] = biological target: NK1 (h) (Homo sapiens, UniProt P25103); test: CEREP binding assay; conditions: agonist radioligand, read-out: % Inhibition of Control Specific Binding
# [35] = biological target: ABL (H396P) (Homo sapiens, UniProt P00519, H396P); conditions: 1 µM, ATP at Km
# [36] = biological target: PAK6 (Homo sapiens, UniProt Q9NQU5); test: Kinase panel (Millipore); format: biochemical; conditions: 1 µM, ATP at Km
# [37] = biological target: T13, PKG1BETA (Homo sapiens, UniProt Q13976); test: Kinase panel (Millipore); format: biochemical; conditions: 1 µM, ATP at Km
# T13 construct: purchased Millipore (KinaseProfiler) kinase panel
# [38] = biological target: T14, PKCEPSILON (Homo sapiens, UniProt Q02156); test: Kinase panel (Millipore); format: biochemical; conditions: 1 µM, ATP at Km
# T14 construct: purchased Millipore (KinaseProfiler) kinase panel
# [39] = biological target: FGR (Homo sapiens, UniProt P09769); test: Kinase panel (Millipore); format: biochemical; conditions: 1 µM, ATP at Km
# [40] = biological target: PI3K GAMMA (Homo sapiens, UniProt P48736); test: Kinase panel (Millipore); format: biochemical; conditions: 1 µM, ATP at Km
# [41] = biological target: ABL(T315I) (Homo sapiens, UniProt P00519, T315I); conditions: 1 µM, ATP at Km
# [42] = biological target: EEF-2K (Homo sapiens, UniProt O00418); test: Kinase panel (Millipore); format: biochemical; conditions: 1 µM, ATP at Km
# [43] = biological target: T15, beta 3 (h) (Homo sapiens, UniProt P13945); test: CEREP binding assay; conditions: antagonist radioligand, read-out: % Inhibition of Control Specific Binding
# T15 construct: purchased Millipore (KinaseProfiler) kinase panel
# T7 sequence (P54764 20-986): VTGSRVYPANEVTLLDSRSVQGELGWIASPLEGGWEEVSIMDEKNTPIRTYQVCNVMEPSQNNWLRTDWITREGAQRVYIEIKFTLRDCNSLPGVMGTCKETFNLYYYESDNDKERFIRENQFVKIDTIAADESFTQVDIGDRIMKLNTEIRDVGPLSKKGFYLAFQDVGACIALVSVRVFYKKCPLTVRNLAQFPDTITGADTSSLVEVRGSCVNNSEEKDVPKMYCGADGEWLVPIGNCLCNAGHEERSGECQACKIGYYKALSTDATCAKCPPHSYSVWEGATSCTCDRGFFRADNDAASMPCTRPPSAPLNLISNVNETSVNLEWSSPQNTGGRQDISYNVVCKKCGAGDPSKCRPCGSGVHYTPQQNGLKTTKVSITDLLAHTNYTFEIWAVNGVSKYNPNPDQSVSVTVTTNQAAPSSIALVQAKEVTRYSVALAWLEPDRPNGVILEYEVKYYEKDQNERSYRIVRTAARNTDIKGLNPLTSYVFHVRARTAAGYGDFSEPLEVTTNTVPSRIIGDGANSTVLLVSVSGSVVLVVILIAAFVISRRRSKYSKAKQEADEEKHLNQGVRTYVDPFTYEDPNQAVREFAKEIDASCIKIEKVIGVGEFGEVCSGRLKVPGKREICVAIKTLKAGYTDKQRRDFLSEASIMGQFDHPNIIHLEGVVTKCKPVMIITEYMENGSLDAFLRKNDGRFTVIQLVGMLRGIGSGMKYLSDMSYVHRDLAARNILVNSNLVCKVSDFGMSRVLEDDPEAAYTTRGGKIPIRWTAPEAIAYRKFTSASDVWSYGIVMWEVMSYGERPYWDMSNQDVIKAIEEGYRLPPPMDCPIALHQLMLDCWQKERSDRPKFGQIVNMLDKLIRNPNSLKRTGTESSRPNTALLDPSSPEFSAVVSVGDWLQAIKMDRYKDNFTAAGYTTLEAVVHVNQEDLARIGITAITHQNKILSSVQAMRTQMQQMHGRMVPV
# T1 sequence (P08581 25-1390): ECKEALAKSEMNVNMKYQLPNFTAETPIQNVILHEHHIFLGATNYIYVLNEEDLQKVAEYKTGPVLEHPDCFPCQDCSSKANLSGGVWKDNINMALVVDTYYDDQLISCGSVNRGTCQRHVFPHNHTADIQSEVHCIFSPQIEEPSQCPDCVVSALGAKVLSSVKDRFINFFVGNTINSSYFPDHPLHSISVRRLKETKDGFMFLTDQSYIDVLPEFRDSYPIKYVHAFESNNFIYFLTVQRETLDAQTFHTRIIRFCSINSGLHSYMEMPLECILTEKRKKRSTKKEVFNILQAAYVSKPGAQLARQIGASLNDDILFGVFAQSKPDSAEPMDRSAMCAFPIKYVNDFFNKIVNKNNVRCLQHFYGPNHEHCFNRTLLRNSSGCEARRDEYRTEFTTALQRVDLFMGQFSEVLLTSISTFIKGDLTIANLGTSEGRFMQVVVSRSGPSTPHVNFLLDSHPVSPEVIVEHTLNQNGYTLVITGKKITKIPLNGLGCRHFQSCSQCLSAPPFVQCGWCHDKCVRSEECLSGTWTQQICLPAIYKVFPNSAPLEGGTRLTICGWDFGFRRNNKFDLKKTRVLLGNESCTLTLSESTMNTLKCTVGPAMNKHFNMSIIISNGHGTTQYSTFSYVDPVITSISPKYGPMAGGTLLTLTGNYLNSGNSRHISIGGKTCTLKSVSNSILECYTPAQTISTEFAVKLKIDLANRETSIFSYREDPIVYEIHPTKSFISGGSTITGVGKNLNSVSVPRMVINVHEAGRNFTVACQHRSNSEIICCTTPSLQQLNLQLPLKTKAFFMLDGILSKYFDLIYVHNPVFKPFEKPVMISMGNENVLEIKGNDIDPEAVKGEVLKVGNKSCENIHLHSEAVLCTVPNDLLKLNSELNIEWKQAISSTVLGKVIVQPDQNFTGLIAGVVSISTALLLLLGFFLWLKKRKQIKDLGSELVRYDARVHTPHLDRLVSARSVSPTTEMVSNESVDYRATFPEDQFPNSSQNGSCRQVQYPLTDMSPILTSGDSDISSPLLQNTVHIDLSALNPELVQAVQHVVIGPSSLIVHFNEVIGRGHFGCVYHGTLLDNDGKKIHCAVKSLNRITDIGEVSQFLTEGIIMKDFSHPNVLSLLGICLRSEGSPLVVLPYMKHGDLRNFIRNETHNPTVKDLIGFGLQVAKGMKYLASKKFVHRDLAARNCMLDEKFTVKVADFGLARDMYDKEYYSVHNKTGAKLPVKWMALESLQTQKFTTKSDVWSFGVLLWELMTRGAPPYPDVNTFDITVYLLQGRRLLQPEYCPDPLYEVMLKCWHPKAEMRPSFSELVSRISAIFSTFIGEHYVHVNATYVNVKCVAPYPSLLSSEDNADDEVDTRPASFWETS
# T8 sequence (Q96BR1 whole entry): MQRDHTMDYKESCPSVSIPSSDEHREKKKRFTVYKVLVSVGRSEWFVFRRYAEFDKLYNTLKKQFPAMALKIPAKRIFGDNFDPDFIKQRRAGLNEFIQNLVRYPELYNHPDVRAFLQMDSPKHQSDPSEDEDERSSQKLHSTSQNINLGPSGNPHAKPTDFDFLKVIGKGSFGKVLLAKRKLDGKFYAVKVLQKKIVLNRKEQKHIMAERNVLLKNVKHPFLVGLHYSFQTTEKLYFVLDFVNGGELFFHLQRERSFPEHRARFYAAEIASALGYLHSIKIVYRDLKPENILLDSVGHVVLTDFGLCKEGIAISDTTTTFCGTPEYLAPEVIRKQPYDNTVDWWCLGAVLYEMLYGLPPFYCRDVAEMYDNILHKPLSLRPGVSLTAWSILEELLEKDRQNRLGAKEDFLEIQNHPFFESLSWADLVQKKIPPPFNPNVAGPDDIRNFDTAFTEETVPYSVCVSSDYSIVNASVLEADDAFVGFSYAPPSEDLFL
# NK1 (h), sequence (P25103 whole entry): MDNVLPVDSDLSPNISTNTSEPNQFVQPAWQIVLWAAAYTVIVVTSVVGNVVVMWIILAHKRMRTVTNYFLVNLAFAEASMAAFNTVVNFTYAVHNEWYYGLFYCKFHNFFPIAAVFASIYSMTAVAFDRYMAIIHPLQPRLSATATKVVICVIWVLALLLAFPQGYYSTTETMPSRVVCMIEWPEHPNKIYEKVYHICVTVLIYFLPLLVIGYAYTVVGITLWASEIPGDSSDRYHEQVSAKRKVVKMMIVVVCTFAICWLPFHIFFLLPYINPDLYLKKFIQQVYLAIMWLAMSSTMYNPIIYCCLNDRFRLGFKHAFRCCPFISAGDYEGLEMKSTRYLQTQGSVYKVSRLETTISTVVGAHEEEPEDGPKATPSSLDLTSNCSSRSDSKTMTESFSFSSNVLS
# YES, sequence (P07947 whole entry): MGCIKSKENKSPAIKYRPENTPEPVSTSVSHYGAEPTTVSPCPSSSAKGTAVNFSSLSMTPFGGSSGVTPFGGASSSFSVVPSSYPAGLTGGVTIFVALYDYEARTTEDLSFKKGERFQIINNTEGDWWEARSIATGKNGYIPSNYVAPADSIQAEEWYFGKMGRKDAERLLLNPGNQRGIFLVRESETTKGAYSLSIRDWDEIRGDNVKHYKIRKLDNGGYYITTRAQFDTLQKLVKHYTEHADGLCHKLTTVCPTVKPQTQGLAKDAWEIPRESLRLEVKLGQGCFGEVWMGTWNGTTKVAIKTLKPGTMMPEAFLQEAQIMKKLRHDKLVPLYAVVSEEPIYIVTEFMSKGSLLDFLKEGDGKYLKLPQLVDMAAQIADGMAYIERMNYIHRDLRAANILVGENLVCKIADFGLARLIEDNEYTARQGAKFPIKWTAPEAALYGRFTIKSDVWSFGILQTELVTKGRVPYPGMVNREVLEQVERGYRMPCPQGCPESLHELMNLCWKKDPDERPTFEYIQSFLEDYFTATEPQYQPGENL
# PKCBETAI, sequence (P05771 whole entry): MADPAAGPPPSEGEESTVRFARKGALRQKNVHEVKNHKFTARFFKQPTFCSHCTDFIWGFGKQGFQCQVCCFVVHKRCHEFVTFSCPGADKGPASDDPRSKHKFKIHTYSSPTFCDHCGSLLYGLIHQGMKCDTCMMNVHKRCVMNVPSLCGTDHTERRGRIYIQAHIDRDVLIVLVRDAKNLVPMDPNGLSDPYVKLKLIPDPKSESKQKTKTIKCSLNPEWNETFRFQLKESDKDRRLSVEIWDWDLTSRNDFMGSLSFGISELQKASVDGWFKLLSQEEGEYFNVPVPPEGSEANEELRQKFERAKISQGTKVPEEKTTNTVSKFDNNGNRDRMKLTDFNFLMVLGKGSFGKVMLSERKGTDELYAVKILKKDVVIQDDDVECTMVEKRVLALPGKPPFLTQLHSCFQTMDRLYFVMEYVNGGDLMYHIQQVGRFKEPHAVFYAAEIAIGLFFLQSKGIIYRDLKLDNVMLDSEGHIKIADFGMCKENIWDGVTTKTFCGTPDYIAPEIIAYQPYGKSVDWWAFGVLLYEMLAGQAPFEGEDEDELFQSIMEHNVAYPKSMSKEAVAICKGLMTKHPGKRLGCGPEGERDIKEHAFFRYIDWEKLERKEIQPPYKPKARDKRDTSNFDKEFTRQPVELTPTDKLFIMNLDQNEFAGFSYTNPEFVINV
# T4 sequence (P49137 whole entry): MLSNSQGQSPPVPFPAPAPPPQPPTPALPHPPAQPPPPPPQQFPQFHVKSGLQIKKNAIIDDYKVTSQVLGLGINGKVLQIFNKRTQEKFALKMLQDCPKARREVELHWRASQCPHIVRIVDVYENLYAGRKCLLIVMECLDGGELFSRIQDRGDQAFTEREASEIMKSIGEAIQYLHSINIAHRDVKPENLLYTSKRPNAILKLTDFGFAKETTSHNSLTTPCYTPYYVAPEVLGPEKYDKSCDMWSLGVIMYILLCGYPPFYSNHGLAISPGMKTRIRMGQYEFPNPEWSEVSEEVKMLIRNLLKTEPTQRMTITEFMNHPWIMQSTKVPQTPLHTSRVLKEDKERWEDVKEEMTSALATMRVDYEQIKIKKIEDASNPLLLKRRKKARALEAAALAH
compound,measurement,setting,value
"Cn1ncc2cc(-c3cnc(N)c(Cl)c3N3CCC4(CCNC4=O)CC3)ccc21 [Compound 109, 8-(2-Amino-3-chloro-5-(1-methyl-1H-indazol-5-yl)pyridin-4-yl)-2,8-diazaspiro[4.5]decan-1-one]",% effect,[1],5%
same,% effect,[2],1%
same,% Inhibition of Control Specific Binding,[3],12%
same,LBF,[4],10%
same,% effect,[5],-1%
same,% effect,[6],-13%
same,% effect,[7],6%
same,inhibition at 10 µM,[8],0%
same,% effect,[9],11%
same,% effect,[10],5%
same,% effect,[11],1%
same,inhibition at 10 µM,[12],-7%
same,% effect,[13],0%
same,% effect,[14],17%
same,% effect,[15],-15%
same,% effect,[16],-2%
same,% effect,[17],-35%
same,% Inhibition of Control Specific Binding,[18],-8%
same,% effect,[19],-3%
same,% effect,[20],-1%
same,% effect,[21],14%
same,% effect,[22],5%
same,% effect,[23],-4%
same,Vd,[24],2 L/kg
same,clearance,[24]; iv,24.8 mL/min/kg
same,% effect,[25],6%
same,% effect,[26],13%
same,% effect,[27],6%
same,% effect,[28],10%
same,% effect,[29],6%
same,% effect,[30],-10%
same,% effect,[31],7%
same,inhibition at 10 µM,[32],11%
same,% effect,[33],7%
same,inhibition at 10 µM,[34],25%
same,% effect,[35],-4%
same,% effect,[36],2%
same,% effect,[37],-7%
same,% effect,[38],-21%
same,% effect,[39],-2%
same,% effect,[40],7%
same,% effect,[41],4%
same,% effect,[42],-6%
same,inhibition at 10 µM,[43],-16%
